Literature values in paper PMC7821949 (Biomolecules, 2020).

Test system: α-Bgt

HAP: Combinatorial high-affinity peptide HAP. (WRYYESSLLPYPD)
affinity for α-Bgt: 2 to 4 nM
